The results in this text go back to patent publication US12338256B2, “Aza-tetracyclic oxazepine compounds and uses thereof” (Genentech, Inc., priority 2022, dated 2025).

The structures appear in SMILES notation. pIC50: −log10 of the molar value.

Assay [1] deals with HPAC (homozygous mutant KRAS G12D human pancreatic cell line). The experiment in a line: KRAS 3D-Cell Proliferation Assay, HPAC (Example 503). It counts as cell-based. The following applies: Homo sapiens, HPAC, 168 h, HPAC 3D culture, 7 days, CellTiter-Glo 3D; read-out: Prolif HPAC 3D ATP IC50. Put shortly: (§1)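 KRAS G12D homozygous pancreatic lines and KRAS wild-type lung lines grown as 3D cultures in ultra-low-attachment wells in RPMI-1640/10% FBS, dosed after overnight with compound dilution series (0.3% DMSO final) for 7 days at 37 °C. ATP read by CellTiter-Glo 3D luminescence; IC50 from 4-parameter Hill fit, normalized to DMSO and 1 μM staurosporine.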
(In general: In ATP-based viability assays light output follows the ATP content of the culture.)

Assay [2] deals with H1975 (KRAS wild type human lung adenocarcinoma cell line). The experiment in a line: KRAS 3D-Cell Proliferation Assay, H1975 (Example 503). It counts as cell-based. The following applies: Homo sapiens, NCI-H1975, 168 h, H1975 3D culture, 7 days, CellTiter-Glo 3D; read-out: Prolif H1975 3D ATP IC50. The method in brief: as §1

As usually defined, the pIC50 is the IC50 on a negative log10 scale, so that one unit is a factor of ten. Regarding `Cc1c(F)ccc(-c2nc3c4c(nc(OC[C@@]56CCCN5C[C@H](F)C6)nc4c2F)N2C[C@H]4CC[C@H](N4)[C@H]2[C@H](C)O3)c1C(F)(F)F` [Compound 203, (5S,5aS,6S,9R)-1-fluoro-2-(4-fluoro-3-methyl-2-(trifluoromethyl)phenyl)-12-(((2R,7aS)-2-fluorotetrahydro-1H-pyrrolizin-7a(5H)-yl)methoxy)-5-methyl-5a,6,7,8,9,10-hexahydro-5H-4-oxa-3,10a,11,13,14-pentaaza-6,9-methanonaphtho[1,8-ab]heptalene], the negative-log IC50 (pIC50) in assay [1] is 6.28; in assay [2] it was 4.70.
Take `Cc1c(F)c(N)c(F)c(-c2nc3c4c(nc(OC[C@@]56CCCN5C[C@H](F)C6)nc4c2F)N2C[C@H]4CC[C@H](N4)[C@H]2[C@H](C)O3)c1I` [Compound 204, 2,6-Difluoro-3-((5S,5aS,6S,9R)-1-fluoro-12-(((2R,7aS)-2-fluorotetrahydro-1H-pyrrolizin-7a(5H)-yl)methoxy)-5-methyl-5a,6,7,8,9,10-hexahydro-5H-4-oxa-3,10a,11,13,14-pentaaza-6,9-methanonaphtho[1,8-ab]heptalen-2-yl)-4-iodo-5-methylaniline]: the pIC50 in assay [1] is 7.72; in assay [2], 5.85.
As to `Cc1nc(N)cc(-c2nc3c4c(nc(OCC5(CN6CC7COCC7C6)CC5)nc4c2F)N2C[C@H]4CC[C@H](N4)[C@H]2[C@H](C)O3)c1C(F)(F)F` (stereo partly drawn) [Compound 205, 4-((5S,5aS,6S,9R)-1-Fluoro-5-methyl-12-((1-((tetrahydro-1H-furo[3,4-c]pyrrol-5(3H)-yl)methyl)cyclopropyl)methoxy)-5a,6,7,8,9,10-hexahydro-5H-4-oxa-3,10a,11,13,14-pentaaza-6,9-methanonaphtho[1,8-ab]heptalen-2-yl)-6-methyl-5-(trifluoromethyl)pyridin-2-amine], the pIC50 in assay [1] is 8.47; in assay [2], 5.95.
On to `Cc1nc(N)cc(-c2nc3c4c(nc(OCC5(CN6CC7CCC(C6)O7)CC5)nc4c2F)N2C[C@H]4CC[C@H](N4)[C@H]2[C@H](C)O3)c1C(F)(F)F` [Compound 207, 4-((5S,5aS,6S,9R)-12-((1-((8-oxa-3-azabicyclo[3.2.1]octan-3-yl)methyl)cyclopropyl)methoxy)-1-fluoro-5-methyl-5a,6,7,8,9,10-hexahydro-5H-4-oxa-3,10a,11,13,14-pentaaza-6,9-methanonaphtho[1,8-ab]heptalene-2-yl)-6-methyl-5-(trifluoromethyl)pyridin-2-amine], for which the pIC50 in assay [1] was 8.63; in assay [2] it was 5.85.
Turning to `Cc1nc(N)cc(-c2nc3c4c(nc(OCC5(CN6C[C@@H]7C[C@H]6CO7)CC5)nc4c2F)N2C[C@H]4CC[C@H](N4)[C@H]2[C@H](C)O3)c1C(F)(F)F` [Compound 208, 4-((5S,5aS,6S,9R)-12-((1-(((1S,4S)-2-Oxa-5-azabicyclo[2.2.1]heptan-5-yl)methyl)cyclopropyl)methoxy)-1-fluoro-5-methyl-5a,6,7,8,9,10-hexahydro-5H-4-oxa-3,10a,11,13,14-pentaaza-6,9-methanonaphtho[1,8-ab]heptalene-2-yl)-6-methyl-5-(trifluoromethyl)pyridin-2-amine], the values for the negative-log IC50 (pIC50) in assay [1] and in assay [2] were 8.31 and 5.44, respectively.
With `Cc1nc(N)cc(-c2nc3c4c(nc(OCC5(CN6C[C@H]7C[C@@H]6CO7)CC5)nc4c2F)N2C[C@H]4CC[C@H](N4)[C@H]2[C@H](C)O3)c1C(F)(F)F` [Compound 209, 4-((5S,5aS,6S,9R)-12-((1-(((1R,4R)-2-Oxa-5-azabicyclo[2.2.1]heptan-5-yl)methyl)cyclopropyl)methoxy)-1-fluoro-5-methyl-5a,6,7,8,9,10-hexahydro-5H-4-oxa-3,10a,11,13,14-pentaaza-6,9-methanonaphtho[1,8-ab]heptalene-2-yl)-6-methyl-5-(trifluoromethyl)pyridin-2-amine], the pIC50 is 8.46 in assay [1] and 6.55 in assay [2].
With `Cc1nc(N)cc(-c2nc3c4c(nc(OCC5(CN6CC7CCC6CO7)CC5)nc4c2F)N2C[C@H]4CC[C@H](N4)[C@H]2[C@H](C)O3)c1C(F)(F)F` [Compound 211, 4-((5S,5aS,6S,9R)-12-((1-((2-Oxa-5-azabicyclo[2.2.2]octan-5-yl)methyl)cyclopropyl)methoxy)-1-fluoro-5-methyl-5°,6,7,8,9,10-hexahydro-5H-4-oxa-3,10°,11,13,14-pentaaza-6,9-methanonaphtho[1,8-ab]heptalen-2-yl)-6-methyl-5-(trifluoromethyl)pyridin-2-amine], the pIC50 in assay [1] was 8.84; in assay [2] it was 5.94.
With `Cc1nc(N)cc(-c2nc3c4c(nc(OCC5(CN6CCOC7(CC7)C6)CC5)nc4c2F)N2C[C@H]4CC[C@H](N4)[C@H]2[C@H](C)O3)c1C(F)(F)F` [Compound 212, 4-((5S,5aS,6S,9R)-12-((1-((4-Oxa-7-azaspiro[2.5]octan-7-yl)methyl)cyclopropyl)methoxy)-1-fluoro-5-methyl-5a,6,7,8,9,10-hexahydro-5H-4-oxa-3,10a,11,13,14-pentaaza[6,9]methanonaphtho[1,8-ab]heptalene-2-yl)-6-methyl-5-(trifluoromethyl)pyridin-2-amine], the pIC50 was 8.79 in assay [1] and 6.41 in assay [2].
Consider `Cc1nc(N)cc(-c2nc3c4c(nc(OCC5(CN6CCO[C@H](C)C6)CC5)nc4c2F)N2C[C@H]4CC[C@H](N4)[C@H]2[C@H](C)O3)c1C(F)(F)F` [Compound 213, 4-((5S,5aS,6S,9R)-1-Fluoro-5-methyl-12-((1-(((R)-2-methylmorpholino)methyl)cyclopropyl)methoxy)-5a,6,7,8,9,10-hexahydro-5H-4-oxa-3,10a,11,13,14-pentaaza-6,9-methanonaphtho[1,8-ab]heptalen-2-yl)-6-methyl-5-(trifluoromethyl)pyridin-2-amine], for which the negative-log IC50 (pIC50) in assay [1] is 8.90; in assay [2] it was 6.53.
The matching figures for `Cc1nc(N)cc(-c2nc3c4c(nc(OC[C@]56CCCN5CC(F)(F)C6)nc4c2F)N2C[C@H]4CC[C@H](N4)[C@H]2[C@H](C)O3)c1C(F)(F)F` [Compound 217, 4-((5S,5aS,6S,9R)-12-(((R)-2,2-difluorotetrahydro-1H-pyrrolizin-7a(5H)-yl)methoxy)-1-fluoro-5-methyl-5a,6,7,8,9,10-hexahydro-5H-4-oxa-3,10a,11,13,14-pentaaza-6,9-methanonaphtho[1,8-ab]heptalen-2-yl)-6-methyl-5-(trifluoromethyl)pyridin-2-amine]: 7.41 and 4.90.
On to `Cc1nc(N)cc(-c2nc3c4c(nc(OCC5(CN6C[C@@H](C)O[C@@H](C)C6)CC5)nc4c2F)N2C[C@H]4CC[C@H](N4)[C@H]2[C@H](C)O3)c1C(F)(F)F` [Compound 218, 4-((5S,5aS,6S,9R)-12-((1-(((2R,6S)-2,6-Dimethylmorpholino)methyl)cyclopropyl)methoxy)-1-fluoro-5-methyl-5a,6,7,8,9,10-hexahydro-5H-4-oxa-3,10a,11,13,14-pentaaza-6,9-methanonaphtho[1,8-ab]heptalen-2-yl)-6-methyl-5-(trifluoromethyl)pyridin-2-amine], for which the results for the negative logarithm of the IC50 (pIC50) in assay [1] and in assay [2] were 8.87 and 6.42, respectively.
For the compound `Cc1nc(N)c(F)c(-c2nc3c4c(nc(OCC5(CN6CCOCC6)CC5)nc4c2F)N2C[C@H]4CC[C@H](N4)[C@H]2[C@H](C)O3)c1C(F)(F)F` [Compound 219, 3-Fluoro-4-((5S,5aS,6S,9R)-1-fluoro-5-methyl-12-((1-(morpholinomethyl)cyclopropyl)methoxy)-5a,6,7,8,9,10-hexahydro-5H-4-oxa-3,10a,11,13,14-pentaaza-6,9-methanonaphtho[1,8-ab]heptalen-2-yl)-6-methyl-5-(trifluoromethyl)pyridin-2-amine], the pIC50 in assay [1] was 8.44; in assay [2] it was 5.08.
The matching figures for `Cc1nc(N)c(F)c(-c2nc3c4c(nc(OCC56CCN5CC(F)(F)C6)nc4c2F)N2C[C@H]4CC[C@H](N4)[C@H]2[C@H](C)O3)c1C(F)(F)F` (stereo partly drawn) [Compound 220, 4-((5S,5aS,6S,9R)-12-((3,3-Difluoro-1-azabicyclo[3.2.0]heptan-5-yl)methoxy)-1-fluoro-5-methyl-5a,6,7,8,9,10-hexahydro-5H-4-oxa-3,10a,11,13,14-pentaaza-6,9-methanonaphtho[1,8-ab]heptalene-2-yl)-3-fluoro-6-methyl-5-(trifluoromethyl)pyridin-2-amine]: 7.93 and 4.70.
Turning to `Cc1nc(N)c(F)c(-c2nc3c4c(nc(OCC5(CN6C[C@@H]7C[C@H]6CO7)CC5)nc4c2F)N2C[C@H]4CC[C@H](N4)[C@H]2[C@H](C)O3)c1C(F)(F)F` [Compound 222, 4-((5S,5aS,6S,9R)-12-((1-(((1S,4S)-2-Oxa-5-azabicyclo[2.2.1]heptan-5-yl)methyl)cyclopropyl)methoxy)-1-fluoro-5-methyl-5a,6,7,8,9,10-hexahydro-5H-4-oxa-3,10a,11,13,14-pentaaza-6,9-methanonaphtho[1,8-ab]heptalene-2-yl)-3-fluoro-6-methyl-5-(trifluoromethyl)pyridin-2-amine], the pIC50 in assay [1] is 8.24; in assay [2], 5.83.
Turning to `Cc1nc(N)c(F)c(-c2nc3c4c(nc(OCC5(CN6C[C@H]7C[C@@H]6CO7)CC5)nc4c2F)N2C[C@H]4CC[C@H](N4)[C@H]2[C@H](C)O3)c1C(F)(F)F` [Compound 223, 4-((5S,5aS,6S,9R)-12-((1-(((1R,4R)-2-Oxa-5-azabicyclo[2.2.1]heptan-5-yl)methyl)cyclopropyl)methoxy)-1-fluoro-5-methyl-5a,6,7,8,9,10-hexahydro-5H-4-oxa-3,10a,11,13,14-pentaaza-6,9-methanonaphtho[1,8-ab]heptalene-2-yl)-3-fluoro-6-methyl-5-(trifluoromethyl)pyridin-2-amine], the negative-log IC50 (pIC50) in assay [1] is 8.19; in assay [2], 5.91.
